Structures are written as SMILES.

The target of this assay is MALT1 (Homo sapiens (Human), UniProt Q9UDY8). The assay is described as follows: MALT1 enzymatic activity inhibition (fluorescence, Ac-LRSR-AMC substrate). It is filed as biochemical. The settings on record: recombinant MALT1 1.5 ng/μl, Ac-LRSR-AMC 1 μM. In short, it runs like this: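 Recombinant human MALT1 (1.5 ng/μl final) preincubated 10 min at rt with compounds in 50 mM HEPES pH 7.2-7.4, 100 mM NaCl, 900 mM sodium citrate, 10 mM DTT; 1 μM Ac-LRSR-AMC then added. AMC fluorescence read at start and after 30 min 37 °C plus 30 min rt; difference gives signal, % inhibition fitted to IC50.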
Chain of MALT1 (Q9UDY8 whole entry): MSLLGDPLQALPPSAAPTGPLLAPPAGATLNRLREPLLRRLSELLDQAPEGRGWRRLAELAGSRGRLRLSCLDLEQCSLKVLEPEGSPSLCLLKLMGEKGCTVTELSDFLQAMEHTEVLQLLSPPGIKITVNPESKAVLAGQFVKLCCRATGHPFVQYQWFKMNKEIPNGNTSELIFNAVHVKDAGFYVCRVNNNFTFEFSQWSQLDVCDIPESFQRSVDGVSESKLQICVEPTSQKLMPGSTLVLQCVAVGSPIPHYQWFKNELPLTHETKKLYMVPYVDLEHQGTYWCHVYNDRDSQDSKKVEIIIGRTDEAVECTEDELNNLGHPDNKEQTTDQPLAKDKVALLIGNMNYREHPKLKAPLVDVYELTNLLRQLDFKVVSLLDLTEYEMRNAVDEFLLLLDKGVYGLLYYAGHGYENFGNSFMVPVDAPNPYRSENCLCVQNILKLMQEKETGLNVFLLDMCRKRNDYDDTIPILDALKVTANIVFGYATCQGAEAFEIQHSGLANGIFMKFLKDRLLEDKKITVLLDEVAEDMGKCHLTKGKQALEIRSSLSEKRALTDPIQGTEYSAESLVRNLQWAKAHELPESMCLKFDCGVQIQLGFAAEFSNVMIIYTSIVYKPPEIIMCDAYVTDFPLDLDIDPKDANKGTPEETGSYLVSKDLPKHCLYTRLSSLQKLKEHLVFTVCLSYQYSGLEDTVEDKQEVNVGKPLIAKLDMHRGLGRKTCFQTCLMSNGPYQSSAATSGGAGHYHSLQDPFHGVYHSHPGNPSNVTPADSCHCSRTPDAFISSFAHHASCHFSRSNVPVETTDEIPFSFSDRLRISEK
For `CC(C)c1c(NC(=O)Nc2cnc(-c3noc(CCCCC(=O)N4CCN(c5ccc6c(c5)CN(C5CCC(=O)NC5=O)C6=O)CC4)n3)c(Cl)c2)cnc2ccnn12` (centres unmarked) [Compound 139, 1-[5-chloro-6-[5-[5-[4-[2-(2,6-dioxo-3-piperidyl)-1-oxo-isoindolin-5-yl]piperazin-1-yl]-5-oxo-pentyl]-1,2,4-oxadiazol-3-yl]-3-pyridyl]-3-(7-isopropylpyrazolo[1,5-a]pyrimidin-6-yl)urea], the EC50 was ≤ 0.2 µM.

As for `CC(C)c1c(NC(=O)Nc2cnc(-c3noc(CCCC(=O)N4CCN(c5ccc6c(c5)CN(C5CCC(=O)NC5=O)C6=O)CC4)n3)c(Cl)c2)cnc2ccnn12` (centres unmarked) [Compound 140, 1-[5-chloro-6-[5-[4-[4-[2-(2,6-dioxo-3-piperidyl)-1-oxo-isoindolin-5-yl]piperazin-1-yl]-4-oxo-butyl]-1,2,4-oxadiazol-3-yl]-3-pyridyl]-3-(7-isopropylpyrazolo[1,5-a]pyrimidin-6-yl)urea], the EC50 is ≤ 0.2 µM.

With `Cc1cc(NC(=O)Nc2cnc3ccnn3c2C2CCCCC2)cnc1-c1noc(CCCCN2CCN(c3ccc4c(c3)CN(C3CCC(=O)NC3=O)C4=O)CC2)n1` (centres unmarked) [Compound 141, 1-(7-cyclohexylpyrazolo[1,5-a]pyrimidin-6-yl)-3-[6-[5-[4-[4-[2-(2,6-dioxo-3-piperidyl)-1-oxo-isoindolin-5-yl]piperazin-1-yl]butyl]-1,2,4-oxadiazol-3-yl]-5-methyl-3-pyridyl]urea], the EC50 was in the range of 0.2 to 0.5 µM.

Regarding `CC(C)c1c(NC(=O)Nc2ccc(-c3nnc(CCCCCCN4CCN(c5ccc6c(c5)CN(C5CCC(=O)NC5=O)C6=O)CC4)s3)nc2)cnc2ccnn12` (centres unmarked) [Compound 142, 1-[6-[5-[6-[4-[2-(2,6-dioxo-3-piperidyl)-1-oxo-isoindolin-5-yl]piperazin-1-yl]hexyl]-1,3,4-thiadiazol-2-yl]-3-pyridyl]-3-(7-isopropylpyrazolo[1,5-a]pyrimidin-6-yl)urea], the EC50 was 1 to 5 µM.

Take `O=C1CCC(N2Cc3cc(N4CCN(CCCCCCc5nnc(-c6ccc(NC(=O)Nc7cnc8ccnn8c7C7CCCC7)cn6)s5)CC4)ccc3C2=O)C(=O)N1` (centres unmarked) [Compound 143, 1-(7-cyclopentylpyrazolo[1,5-a]pyrimidin-6-yl)-3-[6-[5-[6-[4-[2-(2,6-dioxo-3-piperidyl)-1-oxo-isoindolin-5-yl]piperazin-1-yl]hexyl]-1,3,4-thiadiazol-2-yl]-3-pyridyl]urea]: the 50% effective concentration (EC50) was in the range of 1 to 5 µM.

For the molecule `Cc1cc(NC(=O)Nc2cnc3ccnn3c2C(C)C)cnc1-c1noc(CCCC(=O)N2CCN(c3ccc4c(c3)CN(C3CCC(=O)N(C)C3=O)C4=O)CC2)n1` (centres unmarked) [Compound 144, 1-(7-isopropylpyrazolo[1,5-a]pyrimidin-6-yl)-3-[5-methyl-6-[5-[4-[4-[2-(1-methyl-2,6-dioxo-3-piperidyl)-1-oxo-isoindolin-5-yl]piperazin-1-yl]-4-oxo-butyl]-1,2,4-oxadiazol-3-yl]-3-pyridyl]urea], the EC50 was ≤ 0.2 µM.

In the case of `Cc1cc(NC(=O)Nc2cnc3ccnn3c2C(C)C)cnc1-c1noc(CCCCC(=O)N2CCN(c3ccc4c(c3)CN(C3CCC(=O)N(C)C3=O)C4=O)CC2)n1` (centres unmarked) [Compound 145, 1-(7-isopropylpyrazolo[1,5-a]pyrimidin-6-yl)-3-[5-methyl-6-[5-[5-[4-[2-(1-methyl-2,6-dioxo-3-piperidyl)-1-oxo-isoindolin-5-yl]piperazin-1-yl]-5-oxo-pentyl]-1,2,4-oxadiazol-3-yl]-3-pyridyl]urea], the EC50 is ≤ 0.2 µM.

Consider `Cc1cc(NC(=O)Nc2cnc3ccnn3c2C(C)C)cnc1-c1noc(CCCCCC(=O)N2CCN(c3ccc4c(c3)CN(C3CCC(=O)N(C)C3=O)C4=O)CC2)n1` (centres unmarked) [Compound 146, 1-(7-isopropylpyrazolo[1,5-a]pyrimidin-6-yl)-3-[5-methyl-6-[5-[6-[4-[2-(1-methyl-2,6-dioxo-3-piperidyl)-1-oxo-isoindolin-5-yl]piperazin-1-yl]-6-oxo-hexyl]-1,2,4-oxadiazol-3-yl]-3-pyridyl]urea], for which the EC50 was ≤ 0.2 µM.

For the molecule `CCCCOP(=O)(OCCCC)OCN1C(=O)CCC(N2Cc3cc(N4CCN(C(=O)CCCCc5nc(-c6ncc(NC(=O)Nc7cnc8ccnn8c7C(C)C)cc6C)no5)CC4)ccc3C2=O)C1=O` (centres unmarked) [Compound 147, dibutyl [3-[5-[4-[5-[3-[5-[(7-isopropylpyrazolo[1,5-a]pyrimidin-6-yl)carbamoylamino]-3-methyl-2-pyridyl]-1,2,4-oxadiazol-5-yl]pentanoyl]piperazin-1-yl]-1-oxo-isoindolin-2-yl]-2,6-dioxo-1-piperidyl]methyl phosphate], the EC50 is ≤ 0.2 µM.

For `CCCCOP(=O)(OCCCC)OCN1C(=O)CCC(N2Cc3cc(N4CCN(C(=O)CCCCCc5nc(-c6ncc(NC(=O)Nc7cnc8ccnn8c7C(C)C)cc6C)no5)CC4)ccc3C2=O)C1=O` (centres unmarked) [Compound 148, dibutyl [3-[5-[4-[6-[3-[5-[(7-isopropylpyrazolo[1,5-a]pyrimidin-6-yl)carbamoylamino]-3-methyl-2-pyridyl]-1,2,4-oxadiazol-5-yl]hexanoyl]piperazin-1-yl]-1-oxo-isoindolin-2-yl]-2,6-dioxo-1-piperidyl]methyl phosphate], the EC50 lay in the range of 0.5 to 1 µM.

For the molecule `Cc1cc(NC(=O)Nc2cnc3ccnn3c2C(C)C)cnc1-c1noc(CCCC(=O)N2CCN(c3ccc4c(c3)CN(C3CCC(=O)N(COC(=O)C(C)(C)C)C3=O)C4=O)CC2)n1` (centres unmarked) [Compound 149, [3-[5-[4-[4-[3-[5-[(7-isopropylpyrazolo[1,5-a]pyrimidin-6-yl)carbamoylamino]-3-methyl-2-pyridyl]-1,2,4-oxadiazol-5-yl]butanoyl]piperazin-1-yl]-1-oxo-isoindolin-2-yl]-2,6-dioxo-1-piperidyl]methyl 2,2-dimethylpropanoate], the EC50 is ≤ 0.2 µM.

For the molecule `Cc1cc(NC(=O)Nc2cnc3ccnn3c2C(C)(C)C)cnc1-c1noc(CCCCCN2CCN(c3ccc4c(c3)CN(C3CCC(=O)NC3=O)C4=O)CC2)n1` (centres unmarked) [Compound 150, 1-(7-tert-butylpyrazolo[1,5-a]pyrimidin-6-yl)-3-[6-[5-[5-[4-[2-(2,6-dioxo-3-piperidyl)-1-oxo-isoindolin-5-yl]piperazin-1-yl]pentyl]-1,2,4-oxadiazol-3-yl]-5-methyl-3-pyridyl]urea], the EC50 was in the range of 1 to 5 µM.

For the molecule `O=C1CCC(N2Cc3cc(N4CCN(C(=O)CCCCn5cc(NC(=O)Nc6cnc7ccnn7c6C6CCCC6)c(C(F)(F)F)n5)CC4)ccc3C2=O)C(=O)N1` (centres unmarked) [Compound 151, 1-(7-cyclopentylpyrazolo[1,5-a]pyrimidin-6-yl)-3-[1-[5-[4-[2-(2,6-dioxo-3-piperidyl)-1-oxo-isoindolin-5-yl]piperazin-1-yl]-5-oxo-pentyl]-3-(trifluoromethyl)pyrazol-4-yl]urea], the EC50 fell in the range of 1 to 5 µM.

As for `O=C1CCC(N2Cc3cc(N4CCN(C(=O)CCCCn5cc(NC(=O)Nc6cnc7ccnn7c6C6CCC6)c(C(F)(F)F)n5)CC4)ccc3C2=O)C(=O)N1` (centres unmarked) [Compound 152, 1-(7-cyclobutylpyrazolo[1,5-a]pyrimidin-6-yl)-3-[1-[5-[4-[2-(2,6-dioxo-3-piperidyl)-1-oxo-isoindolin-5-yl]piperazin-1-yl]-5-oxo-pentyl]-3-(trifluoromethyl)pyrazol-4-yl]urea], the EC50 lay in the range of 1 to 5 µM.

For `Cc1cc(NC(=O)Nc2cnc3ccnn3c2C(C)C)cnc1-c1nnc(CCCCCC(=O)N2CCN(c3ccc4c(c3)CN(C3CCC(=O)NC3=O)C4=O)CC2)s1` (centres unmarked) [Compound 153, 1-[6-[5-[6-[4-[2-(2,6-dioxo-3-piperidyl)-1-oxo-isoindolin-5-yl]piperazin-1-yl]-6-oxo-hexyl]-1,3,4-thiadiazol-2-yl]-5-methyl-3-pyridyl]-3-(7-isopropylpyrazolo[1,5-a]pyrimidin-6-yl)urea], the EC50 was 0.2 to 0.5 µM.

Turning to `Cc1cc(NC(=O)Nc2cnc3ccnn3c2C(C)C)cnc1-c1nnc(CCCCC(=O)N2CCN(c3ccc4c(c3)CN(C3CCC(=O)NC3=O)C4=O)CC2)s1` (centres unmarked) [Compound 154, 1-[6-[5-[5-[4-[2-(2,6-dioxo-3-piperidyl)-1-oxo-isoindolin-5-yl]piperazin-1-yl]-5-oxo-pentyl]-1,3,4-thiadiazol-2-yl]-5-methyl-3-pyridyl]-3-(7-isopropylpyrazolo[1,5-a]pyrimidin-6-yl)urea], the EC50 is 0.2 to 0.5 µM.

For `O=C1CCC(N2Cc3cc(N4CCN(C(=O)CCCCn5cc(NC(=O)Nc6cnc7ccnn7c6C6CCCO6)c(C(F)(F)F)n5)CC4)ccc3C2=O)C(=O)N1` (centres unmarked) [Compound 155, 1-[1-[5-[4-[2-(2,6-dioxo-3-piperidyl)-1-oxo-isoindolin-5-yl]piperazin-1-yl]-5-oxo-pentyl]-3-(trifluoromethyl)pyrazol-4-yl]-3-(7-tetrahydrofuran-2-ylpyrazolo[1,5-a]pyrimidin-6-yl)urea], the EC50 was > 5 µM.

On to `O=C1CCC(N2Cc3cc(N4CCN(CCCCCn5cc(NC(=O)Nc6cnc7ccnn7c6C6CCC6)c(C(F)(F)F)n5)CC4)ccc3C2=O)C(=O)N1` (centres unmarked) [Compound 156, 1-(7-cyclobutylpyrazolo[1,5-a]pyrimidin-6-yl)-3-[1-[5-[4-[2-(2,6-dioxo-3-piperidyl)-1-oxo-isoindolin-5-yl]piperazin-1-yl]pentyl]-3-(trifluoromethyl)pyrazol-4-yl]urea], for which the concentration giving a half-maximal response (EC50) was > 5 µM.

On to `CC(C)c1c(NC(=O)Nc2cn(CCCCC(=O)N3CCN(c4ccc5c(c4)CN(C4CCC(=O)NC4=O)C5=O)CC3)nc2C(F)(F)F)cnc2ccnn12` (centres unmarked) [Compound 157, 1-[1-[5-[4-[2-(2,6-dioxo-3-piperidyl)-1-oxo-isoindolin-5-yl]piperazin-1-yl]-5-oxo-pentyl]-3-(trifluoromethyl)pyrazol-4-yl]-3-(7-isopropylpyrazolo[1,5-a]pyrimidin-6-yl)urea], for which the EC50 is > 5 µM.

Turning to `O=C1CCC(N2Cc3cc(N4CCN(C(=O)CCCCCc5nc(-c6ncc(NC(=O)Nc7cnc8ccnn8c7C7CC7)cc6Cl)no5)CC4)ccc3C2=O)C(=O)N1` (centres unmarked) [Compound 158, 1-[5-chloro-6-[5-[6-[4-[2-(2,6-dioxo-3-piperidyl)-1-oxo-isoindolin-5-yl]piperazin-1-yl]-6-oxo-hexyl]-1,2,4-oxadiazol-3-yl]-3-pyridyl]-3-(7-cyclopropylpyrazolo[1,5-a]pyrimidin-6-yl)urea], the EC50 is ≤ 0.2 µM.
